# Measured values: PMC6037779, “Repurposing drugs to target the malaria parasite unfolding protein response” (Scientific Reports, 2018)
# Target: T1, PfGRP78-NBD (Plasmodium falciparum, UniProt Q05866)
# T1 construct: His-tag (pET28-MHL, TEV site) (N, cleaved yes); made in house; host or cells: E. coli BL21(DE3)
# Assay: DSF thermal shift, PfGRP78-NBD
# Format: binding
# Conditions: compound 0.5 mM; shifts above or below 1 °C significant
# Experimental: The Plasmodium and human GRP78 NBD differences were further characterized by measuring their interaction with ATP, ADP, and several compounds referenced in the literature as GRP78 inhibitors (Fig. 3a). Initially, their binding was determined using a DSF (Differential Scanning Fluorimetry) assay. In this assay, an interaction between the chaperone and a compound was measured as a change in the protein’s melting temperature (Tm), by subtracting the Tm of the protein by itself to the melting value of the protein in the presence of the compound. Differences above or below 1 °C between the melting temperatures (ΔTm) were considered indicative of a protein-compound interaction. As expected, the Plasmodium GRP78 chaperone interacted with both ATP and ADP. Four of the six compounds tested had significant effects on protein thermal stability (Fig. 3b).
# DSF screening was carried out using a CFX96 Touch Real-Time PCR Detection System (BioRad, California). The PfGRP78-FL, PfGRP78-NBD wild type and mutant, and human GRP78-NBD were buffered in 25 mM hepes pH 7.5, 250 mM NaCl and assayed in a 96-well format. […]. The concentration was optimized for each protein to avoid saturation of the fluorescence detector. The GRP78 inhibitors were used at a final concentration of 0.5 mM. SYPRO Orange (Life Technologies, USA) was added as a fluorescence probe in a dilution of 1:1000. The experiments were conducted between 18 °C to 90 °C at a heating rate of 1 °C per minute. The recorded fluorescence reads were fitted to the Boltzmann sigmoid function using DMAN software. The inflection point of each fitted curve is defined as the melting temperature (Tm). The observed temperature shift, ΔTm, was recorded as the difference between Tm of the protein with ligand minus Tm of the protein without ligand. Thermal shifts above or below 1 °C were considered significant.
# T1 sequence (Q05866 26-404): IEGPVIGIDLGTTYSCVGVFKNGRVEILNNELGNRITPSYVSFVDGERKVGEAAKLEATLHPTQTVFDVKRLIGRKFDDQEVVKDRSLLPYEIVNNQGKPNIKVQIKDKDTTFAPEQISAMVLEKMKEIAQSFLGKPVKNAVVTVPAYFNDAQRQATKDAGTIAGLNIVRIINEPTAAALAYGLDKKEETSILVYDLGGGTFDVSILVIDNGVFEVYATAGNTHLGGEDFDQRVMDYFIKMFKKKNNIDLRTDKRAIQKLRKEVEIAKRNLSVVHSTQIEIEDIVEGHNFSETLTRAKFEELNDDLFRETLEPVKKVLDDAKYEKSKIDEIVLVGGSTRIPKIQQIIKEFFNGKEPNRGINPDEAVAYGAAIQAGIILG
smiles,measurement,value
COc1ccc(-c2nc(-c3cc(C(F)(F)F)cc(C(F)(F)F)c3)n(Cc3ccc(C(N)=O)cc3)c2-c2ccc(OC)cc2)cc1 [Apoptozole],DSF effect on thermal stability of PfGRP78-NBD,increased the thermal stability
